One series addresses T1, CYP3A4 (Homo sapiens, UniProt P08684).
T1 construct: using mixed human liver microsomes and human primary hepatocytes as the in vitro; from tissue; host or cells: mixed (pooled) human liver microsomes
In words: CYP inhibition, mixed human liver microsomes. Format: in vitro ADME. In general terms: Microsomes from liver hold many membrane-bound enzymes, among them those of drug oxidation.

For the next series, the target named is T2, CYP2D6 (Homo sapiens, UniProt P10635).
T2 construct: using mixed human liver microsomes and human primary hepatocytes as the in vitro; from tissue; host or cells: mixed (pooled) human liver microsomes
Format: in vitro ADME. The settings on record: microsomes.

The target in the next series is T3, CYP2C8 (Homo sapiens, UniProt P10632).
T3 construct: using mixed human liver microsomes and human primary hepatocytes as the in vitro; from tissue; host or cells: mixed (pooled) human liver microsomes
The format is in vitro ADME. To be noted: microsomes.

Another series concerns the target T4, CYP1A2 (Homo sapiens, UniProt P05177).
T4 construct: using mixed human liver microsomes and human primary hepatocytes as the in vitro; from tissue; host or cells: mixed (pooled) human liver microsomes
Format: in vitro ADME. The settings on record: microsomes.

The target of a further series is T5, CYP2B6 (Homo sapiens, UniProt P20813).
T5 construct: using mixed human liver microsomes and human primary hepatocytes as the in vitro; from tissue; host or cells: mixed (pooled) human liver microsomes
Format: in vitro ADME. To be noted: microsomes.

In series [1] the test system is J53Z1 cells harboring the JAK2V617F mutation and HCD-57 cells transfected with oncogenic mutations. Briefly: Growth of cell lines transfected with oncogenes. The format is cell-based. From the text: (§1) Suzhou Zelgen Biopharmaceuticals Co., Ltd. Jaktinib Hydrochloride Tablets Chemical Drug Class 1 New Drug and ZG0178. However, the inhibitory effect on the activity of Ba/F3-EpoR cell line […]
(§2) respectively. Obviously, this selective inhibition is associated with the aberrant expression of JAK2 in Ba/F3-EpoR-JAK2V617F mutant cells, and the degree of ZG0163 inhibition on JAK-STAT signaling pathway in this cell line. […]
(§3) cells, and the effects of ZG0163 was similar to those of positive control compounds, […]
(§4) In Vitro Inhibitory Effect of ZG0128 on Cell Lines Transfected with Oncogenes and Primary Blood Cells in Patients with Polycythemia Vera
(§5) In vitro cell culture assay was used to determine whether compound ZG0128 […]
(§6) cell line harboring a JAK2V617F mutation, and 8 HCD-57 cell lines stably transfected with oncogenic mutations JAK2V617F, MPLW515L, KITD816V, NPM-ALK, FLT3-ITD, FLT3D835H, FLT3D835Y and KRasG12V, respectively. In addition, study the inhibitory effects of compound ZG0128 on the growth of hematopoietic progenitor cells in patients with polycythemia vera.
(§7) 9 cell lines were similar to those of positive control drug ZG0192. At the sub-micromolar concentration, both compounds ZG0128 and ZG0192 were able to […]
(§8) the growth of HCD-57 cells transfected with oncogenic mutations JAK2V617F, […]
(§9) spectrum inhibitory effect on tyrosine kinases. […]

The target of a further series is T6, CYP2C19 (Homo sapiens, UniProt P33261).
T6 construct: using mixed human liver microsomes and human primary hepatocytes as the in vitro; from tissue; host or cells: mixed (pooled) human liver microsomes
The format is in vitro ADME. The settings on record: microsomes.

The next series has as its target T7, CYP2C9 (Homo sapiens, UniProt P11712).
T7 construct: using mixed human liver microsomes and human primary hepatocytes as the in vitro; from tissue; host or cells: mixed (pooled) human liver microsomes
The format is in vitro ADME. To be noted: microsomes.

Series [2] concerns primary cells harboring the JAK2V617F mutation in patients with polycythemia vera. In words: Colony forming of erythroid hematopoietic cells of polycythemia vera patients. Format: cell-based, human. To be noted: 9 patients.
Text: as §1, §2, §3, §4, §5, §6, §7, §8, §9

A word on the IC50: it is the point on the concentration scale where inhibition reaches its midpoint.

Counter-ions that a name gives are not always drawn. Like-named read-outs stand apart in the source and are kept apart here.

T1 sequence (P08684 whole entry): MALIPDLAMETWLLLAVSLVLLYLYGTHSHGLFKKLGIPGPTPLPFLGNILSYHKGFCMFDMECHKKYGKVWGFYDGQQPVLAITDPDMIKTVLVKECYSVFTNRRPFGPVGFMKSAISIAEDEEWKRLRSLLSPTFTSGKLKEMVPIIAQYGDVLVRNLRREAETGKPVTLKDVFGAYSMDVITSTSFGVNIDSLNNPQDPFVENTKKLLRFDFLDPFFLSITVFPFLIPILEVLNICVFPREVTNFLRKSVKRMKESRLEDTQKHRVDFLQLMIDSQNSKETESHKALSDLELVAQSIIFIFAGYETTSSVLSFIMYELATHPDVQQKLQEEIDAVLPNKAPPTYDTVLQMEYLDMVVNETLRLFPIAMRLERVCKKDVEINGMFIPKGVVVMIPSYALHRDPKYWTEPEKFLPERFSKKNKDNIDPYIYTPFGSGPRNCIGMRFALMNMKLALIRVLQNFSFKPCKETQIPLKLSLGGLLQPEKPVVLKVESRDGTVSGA
T4 sequence (P05177 whole entry): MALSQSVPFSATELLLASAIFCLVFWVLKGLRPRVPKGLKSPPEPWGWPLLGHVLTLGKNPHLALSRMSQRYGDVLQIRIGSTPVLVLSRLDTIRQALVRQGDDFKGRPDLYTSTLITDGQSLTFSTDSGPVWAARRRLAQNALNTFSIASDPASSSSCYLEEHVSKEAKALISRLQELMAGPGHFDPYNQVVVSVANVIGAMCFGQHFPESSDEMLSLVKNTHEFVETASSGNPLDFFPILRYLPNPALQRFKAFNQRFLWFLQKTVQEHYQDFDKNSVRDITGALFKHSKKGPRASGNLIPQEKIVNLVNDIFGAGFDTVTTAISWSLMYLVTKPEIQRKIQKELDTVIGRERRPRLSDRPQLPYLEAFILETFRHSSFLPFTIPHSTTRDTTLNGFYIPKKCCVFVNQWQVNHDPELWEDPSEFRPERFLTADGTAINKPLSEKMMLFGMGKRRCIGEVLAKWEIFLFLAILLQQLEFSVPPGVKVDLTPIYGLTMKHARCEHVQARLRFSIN
T5 sequence (P20813 whole entry): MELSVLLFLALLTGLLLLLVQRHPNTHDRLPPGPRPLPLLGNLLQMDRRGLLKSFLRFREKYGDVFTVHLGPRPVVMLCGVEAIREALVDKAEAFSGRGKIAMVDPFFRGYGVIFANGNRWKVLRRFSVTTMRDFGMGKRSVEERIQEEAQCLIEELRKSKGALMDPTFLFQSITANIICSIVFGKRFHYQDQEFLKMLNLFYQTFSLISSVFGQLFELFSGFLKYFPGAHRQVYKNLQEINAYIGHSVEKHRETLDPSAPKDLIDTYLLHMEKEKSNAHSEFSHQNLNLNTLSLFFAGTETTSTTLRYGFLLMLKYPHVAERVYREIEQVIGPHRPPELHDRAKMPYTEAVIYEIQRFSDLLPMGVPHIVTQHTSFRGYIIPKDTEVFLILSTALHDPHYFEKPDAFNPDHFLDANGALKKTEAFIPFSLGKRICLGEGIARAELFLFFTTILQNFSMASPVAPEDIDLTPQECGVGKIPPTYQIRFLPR
T2 sequence (P10635 whole entry): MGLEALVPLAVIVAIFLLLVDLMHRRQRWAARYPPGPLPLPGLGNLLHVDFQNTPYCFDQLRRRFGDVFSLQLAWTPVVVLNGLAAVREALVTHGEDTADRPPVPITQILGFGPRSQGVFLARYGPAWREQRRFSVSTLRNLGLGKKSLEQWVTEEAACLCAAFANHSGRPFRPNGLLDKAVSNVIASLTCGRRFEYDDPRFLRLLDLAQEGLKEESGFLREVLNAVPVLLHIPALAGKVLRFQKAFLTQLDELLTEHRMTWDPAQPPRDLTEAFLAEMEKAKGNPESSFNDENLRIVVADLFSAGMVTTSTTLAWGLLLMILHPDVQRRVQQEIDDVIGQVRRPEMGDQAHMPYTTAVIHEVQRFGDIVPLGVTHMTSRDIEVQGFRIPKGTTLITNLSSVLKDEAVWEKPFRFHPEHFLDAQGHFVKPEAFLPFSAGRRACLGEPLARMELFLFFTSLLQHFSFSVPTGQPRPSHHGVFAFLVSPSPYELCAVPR
T3 sequence (P10632 whole entry): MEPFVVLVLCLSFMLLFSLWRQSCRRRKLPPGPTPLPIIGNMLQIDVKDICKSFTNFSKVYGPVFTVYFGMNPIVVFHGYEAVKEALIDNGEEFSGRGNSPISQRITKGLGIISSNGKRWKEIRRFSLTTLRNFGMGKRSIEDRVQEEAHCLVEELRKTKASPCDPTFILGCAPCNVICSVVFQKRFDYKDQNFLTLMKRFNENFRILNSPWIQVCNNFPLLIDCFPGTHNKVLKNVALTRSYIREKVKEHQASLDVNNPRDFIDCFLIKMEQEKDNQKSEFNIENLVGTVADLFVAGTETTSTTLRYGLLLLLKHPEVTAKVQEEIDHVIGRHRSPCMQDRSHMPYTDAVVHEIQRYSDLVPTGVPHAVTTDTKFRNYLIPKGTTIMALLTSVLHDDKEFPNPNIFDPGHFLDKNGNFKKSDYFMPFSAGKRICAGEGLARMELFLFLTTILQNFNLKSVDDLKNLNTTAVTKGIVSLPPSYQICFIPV
T6 sequence (P33261 whole entry): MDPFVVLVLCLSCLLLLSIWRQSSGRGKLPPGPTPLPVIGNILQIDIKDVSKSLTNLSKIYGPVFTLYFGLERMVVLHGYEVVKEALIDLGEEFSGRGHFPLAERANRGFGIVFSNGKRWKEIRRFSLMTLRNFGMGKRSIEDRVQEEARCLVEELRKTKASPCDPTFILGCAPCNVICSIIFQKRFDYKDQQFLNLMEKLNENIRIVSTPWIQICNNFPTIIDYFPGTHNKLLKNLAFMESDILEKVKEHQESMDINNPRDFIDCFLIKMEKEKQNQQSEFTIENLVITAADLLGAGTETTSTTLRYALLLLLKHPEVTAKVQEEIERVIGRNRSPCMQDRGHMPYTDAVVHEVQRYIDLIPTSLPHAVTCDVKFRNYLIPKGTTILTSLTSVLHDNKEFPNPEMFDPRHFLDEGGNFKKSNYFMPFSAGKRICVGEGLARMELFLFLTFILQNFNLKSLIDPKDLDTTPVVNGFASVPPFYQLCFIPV
T7 sequence (P11712 whole entry): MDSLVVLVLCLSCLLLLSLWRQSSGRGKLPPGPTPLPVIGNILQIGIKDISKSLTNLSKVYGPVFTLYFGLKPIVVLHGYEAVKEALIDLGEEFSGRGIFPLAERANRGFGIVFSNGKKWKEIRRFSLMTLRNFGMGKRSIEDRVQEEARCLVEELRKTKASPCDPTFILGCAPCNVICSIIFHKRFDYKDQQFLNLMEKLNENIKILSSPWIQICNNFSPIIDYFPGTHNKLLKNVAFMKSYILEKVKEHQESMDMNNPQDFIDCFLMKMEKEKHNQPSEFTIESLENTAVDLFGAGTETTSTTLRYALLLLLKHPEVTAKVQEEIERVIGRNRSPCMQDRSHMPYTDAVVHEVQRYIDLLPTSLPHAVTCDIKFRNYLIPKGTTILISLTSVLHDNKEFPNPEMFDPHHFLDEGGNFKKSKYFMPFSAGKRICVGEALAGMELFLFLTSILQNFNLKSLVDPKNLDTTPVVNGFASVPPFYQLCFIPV

`N#CCNC(=O)c1ccc(-c2ccnc(Nc3ccc(N4CCOCC4)cc3)n2)cc1` [ZG0128, Jaktinib Dihydrochloride Monohydrate]: the IC50 was more than 100 µM on CYP3A4 (microsomes); more than 100 µM on CYP3A4 (midazolam 1'-hydroxylation, read-out: IC50); more than 100 µM at CYP2D6; more than 100 µM at CYP2C8; more than 100 µM at CYP1A2; more than 100 µM against CYP2B6. For the same compound, the IC50 is 0.31 to 0.71 µM in [1] (J53Z1 and HCD-57 with JAK2V617F, MPLW515L, KITD816V, FLT3-ITD, FLT3D835H, FLT3D835Y, read-out: IC50, growth inhibition, range over cell lines); 0.61 µM in series [1] (transfected JAK2V617F cell lines, read-out: IC50); more than 100 µM against CYP2C19; more than 100 µM at CYP2C9; 0.18 µM in series [2].
